This test deals with ADtg mice. Put plainly: Pre- and post-synaptic density in brains of AD+ mice after immune modulation. It is filed as in vivo, mouse. Conditions: 13m old AD+ mice (FIG. 3E). On the procedure:
ADtg mice (10 months old) received subcutaneous injections of GA [also known as Cop-1 and Copaxone®; 100 μg in phosphate-buffered saline (PBS)] or PBS alone (control group) twice a week for 1 week and then once a week for 8 weeks. For evaluation of innate immune infiltration to the brain by flow cytometry, 10-month-old ADtg mice received subcutaneous injections of GA ([…]) or PBS alone twice a week for 1 week and then once a week for 3 weeks. At the end of the study, all mice were anaesthetized and then perfused with ice-cold PBS with 0.5 mM EDTA, after which their organs were collected and analyzed or fixed in 2.5% paraformaldehyde (Sigma-Aldrich), and cryoprotected with 30% sucrose for further histological analysis. […]
To define the synaptic area in the hippocampus of ADtg and non-transgenic (wild-type) mice, three independent coronal brain sections at bregma −2.50 , −2.65, and −2.80 mm (Liang et al., 2011) per animal (n=6 mice per group) were stained with the presynaptic marker VGluT1 (encoded by Slc17a7) (Chemicon, guinea pig, 1:6000). […] Single optical section images were analyzed using the NIH ImageJ macro and batch process to quantify the synaptic area (15 optical sections/field, 15 fields/brain section, and 675 total images/brain). The average synaptic area or percentage of the area per image was calculated for each condition. […]

In the case of glatiramer acetate [GA], the “synaptic rescue (pre- and post-synaptic areas)” value is reported as “remarkable synaptic rescue”.

Values taken from patent US11779600B2, “Methods of treating or preventing alzheimer's disease and associated conditions” (CEDARS-SINAI MEDICAL CENTER, priority 2016, dated 2023).
